Measurements published in US20040229246A1, “Diagnostic markers for therapeutic treatment” (Can-Fite Biopharam Ltd., priority 2002, published 2004).

Legend:
PKA and GSK-3β = test: Receptor functionality: Western blot of PKA and GSK-3β in B16-F10 melanoma cells; type: cell-based
Protocol: (§1) To detect the level of expression of the A3AR proteins Western blot analysis was performed. Cells were incubated in the presence and absence of IB-MECA (10 nM), MRS1523 (10 nM), Forskolin (50 nM), 8 Br cAMP (100 μM), Cycloheximide 20 μg/ml or MG 132 (20 nM) for different time periods at 37° C. Cells were then rinsed with ice-cold PBS and transferred to ice-cold lysis buffer (TNN buffer, 50 mM Tris buffer pH=7.5, 150 mM NaCl, NP 40). In the experiment examining the effect of trypsin on A3AR expression, cells were incubated with 0.5 ml of 0.25% trypsin for 5 minutes. The trypsinized cells were washed again with ice-cold PBS, harvested by centrifugation and subjected to lysis in TNN buffer. Cell debris was removed by centrifugation for 10 minutes, at 7500 xg. The supernatant was utilized for Western Blot analysis. Protein concentrations were determined using the Bio-Rad protein assay dye reagent. Equal amounts of the sample (50 μg) were separated by SDS-PAGE, using 12% polyacrylamide gels. The resolved proteins were then electroblotted onto nitrocellulose membranes (Schleicher & Schuell, Keene, NH, USA). Membranes were blocked with 1% bovine serum albumin and incubated with the desired primary antibody (dilution 1:1000) for 24 hours at 4° C. Blots were then washed and incubated with a secondary antibody for 1 hour at room temperature. Bands were recorded using BCIP/NBT color development kit (Promega, Madison, W1, USA). Data presented in the different figures are representative of at least three different experiments.
To test receptor functionality, the protein expression level of PKA and GSK-3β, which are modulated downstream to A3AR activation, was examined. Functional receptor sensitization by IB-MECA was observed after 15 and 60 minutes and was manifested by decreased PKA and increased GSK-3β levels. […] Indeed, the modulatory effect of IB-MECA on PKA and GSK-3β was reversed in the presence of the above agents (FIG. 8a, 8b and 8c).

A3AR [1] = target: T1, A3AR (Mus musculus, UniProt Q61618); test: Immunostaining and confocal microscopy of A3AR localization in B16-F10 melanoma cells; type: cell-based
T1 construct: endogenous in cells; host or cells: B16-F10 melanoma cells
T1 sequence (Q61618 1-319): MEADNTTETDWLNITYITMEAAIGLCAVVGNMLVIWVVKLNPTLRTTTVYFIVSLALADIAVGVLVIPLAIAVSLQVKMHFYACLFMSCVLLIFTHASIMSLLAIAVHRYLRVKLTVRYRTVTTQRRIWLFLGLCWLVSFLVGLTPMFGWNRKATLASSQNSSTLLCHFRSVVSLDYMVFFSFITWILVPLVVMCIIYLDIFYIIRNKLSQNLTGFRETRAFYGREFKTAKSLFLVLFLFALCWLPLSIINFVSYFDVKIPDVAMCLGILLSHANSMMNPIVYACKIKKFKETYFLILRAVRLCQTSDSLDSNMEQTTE
Protocol: B16-F10 melanoma cells were grown for 24 hours on cover slips coated with Ploy-L-Lysine (500 μg/ml). Cells were fixed in 4% formaldehyde in phosphate-buffered saline (PBS) for 1 hour at room temperature. The fixed cells were rinsed three times for one min with PBS. To block nonspecific interaction of the antibodies, cells were incubated for 30 minutes in 4% normal goat serum (NGS) in PBS (1% bovine serum albumin (BSA), 0.1% Triton X-100). For the single labeling experiments, cells were then incubated with the primary antibodies against A3AR at a dilution of 1:1000 in PBS (1% BSA, 1% NGS, 0.1% Triton X-100) for 24 hours at 4° C. For the double labeling experiments, antibodies against the A2B adenosine receptor (A2BR) were added at a dilution of 1:1000 to the reaction mixture. After being washed three times for 3 minutes with PBS, cells were incubated with Cy3-conjugated anti-goat IgG for the single labeling experiment, and with both, Fluorescein-conjugated anti-rabbit IgG and Cy3 for the double labeling. Both antibodies were diluted to 1:250 in PBS and incubated in the dark for 2 hours. Cells were rinsed with PBS three more times and mounted with AM 100 (Chemicon, Ca). Stained cells were visualized by Confocal Microscope (Zeiss, Axiovert 100 M, excitation at 553 and emission at 560-615 nm for Cy3, and 492 and 520 nm, respectively, for Fluorescein).
To study receptor localization, confocal laser microscopy was utilized.
To further explore the time course kinetic of A3AR internalization, B16-F10 melanoma cells were exposed for different time periods to IB-MECA and confocal microscopy analysis was carried out. FIG. 2 depicts the gradual internalization rate that occurred within a few minutes, resulting in the disappearance of the fluorescence after 6 minutes. […] This was followed by internalization/externalization after longer incubation time periods (30 and 60 minutes). To confirm the observation that the fluorescence level is decreased as a result of internalization, optical sectioning of the cells was performed (data not shown). […] To show the specificity of A3AR localization, it was compared to that of the A2B adenosine receptor. […] Upon exposure of the cells to IB-MECA, the A2BR was masked by A3AR in the cytoplasm.

[2] = test system: A3AR, GSK-3β, cyclin D1, c-myc; test: Western blot of regulatory proteins in HCT-116 tumor lesions excised from mice; type: in vivo
Protocol: as §1
Colon Carcinoma: Nude/BalbC male, 10-week-old mice were used. HCT-116 Human colon carcinoma cells (1.2×10^6 cells in 100 μL PBS) were inoculated subcutaneously to the flank of the mice. Treatment was initiated when tumors reached a size of ˜150 mm^3. Each group contained 10 mice, the control group treated with vehicle only, while the test group was administered daily orally with IB-MECA (10 μg/kg).
After 32 days the mice were sacrificed, tumor lesions were excise and protein was extracted for measurements as described above. Tumor size was evaluated by measuring with a caliber width (W) and length (L) and calculated according to the above formula.

A3AR [3] = test: Northern blot analysis of A3AR mRNA in B16-F10 melanoma cells; type: cell-based; settings: B16-F10 melanoma cells treated with IB-MECA
Protocol: Total RNA was isolated from B16-F10 melanoma cells treated with IB-MECA, utilizing Tri-reagent (Sigma, Saint Louis). The samples were then subjected twice to phenol:chloroform extraction and washed with chloroform. RNA was precipitated with sodium acetate/ethanol following washing with ethanol, then denatured, separated (25 μg per lane) in 1.1% formaldehyde agarose gels and transferred to Hybond-N membrane. The 390 bp EcoRI fragment from A3AR cDNA clone of mouse (TAA3I.S), kindly supplied by Dr Kathia Ravid, was prepared by random-primed synthesis. Probes were used in RNA blot analysis at a hybridization temperature of 42° C. in the presence of 50% formamide.

- time to disappearance of the A3AR fluorescence (internalization) (A3AR [1]; B16-F10 melanoma cells exposed to IB-MECA): 6 min
- A3AR fluorescence level on the cell surface (A3AR [1]; B16-F10 melanoma cells, IB-MECA treated, after 5 minutes): marked decrease
- A3AR localization, optical sectioning (A3AR [1]; B16-F10 melanoma cells, exposure for 5 minutes): presented in the cytoplasm
SMILES: CNC(=O)[C@H]1O[C@@H](n2cnc3c(NCc4cccc(I)c4)ncnc32)[C@H](O)[C@@H]1O [IB-MECA, 1-deoxy-1-[6[[(3-iodophenyl)methyl]amino]-9H-purine-9-yl]-N-methyl-β-D-ribofura-nuronaminde]
- GSK-3β level (PKA and GSK-3β; after 15 and 60 minutes): increased
- PKA level (PKA and GSK-3β; after 15 and 60 minutes): decreased
- GSK-3β level (PKA and GSK-3β; at 30 minutes): only slightly increased
- PKA level (PKA and GSK-3β; at 30 minutes): stabilized
- A3AR localization, optical sectioning (A3AR [1]; B16-F10 melanoma cells, after 15 and 60 minutes' exposure): seen both in the cytoplasm and on the cell surface
- A3AR localization (A3AR [1]; B16-F10 melanoma cells, prolonged exposure (15 minutes)): receptor externalization to the cell surface
- A3AR level [2]: down-regulation
- GSK-3β expression level [2]: up-regulation
- c-myc level [2]: decrease
- cyclin D1 level [2]: decrease
- A3AR mRNA expression level (A3AR [3]): increase
